# Results from ChEMBL document CHEMBL1135808, “A new type of mixed anhydride and its applications to the synthesis of 7-substituted 8-chloro-5,5-dioxoimidazo[1,2-b][1,4,2]benzodithiazines with in vitro antitumor activity” (2002).
# Legend:
# MCF7 [1] = assay: Log of molar concentration leading to 50% cell death against breast cancer MCF 7 cell line was reported; type: functional; settings: Homo sapiens, read-out: Log LC50 (the source's name) (converted)
# DU-145 [2] = assay: In vitro growth inhibition against prostate cancer […] cell line was reported.; type: functional; settings: Homo sapiens
# PC-3 = assay: Log of molar concentration leading to 50% cell death against prostate cancer PC-3 cell line was reported; type: functional; settings: Homo sapiens, read-out: Log LC50 (the source's name) (converted)
# U-251 = assay: Log of molar concentration leading to 50% cell death against CNS cancer U251 cell line was reported; type: functional; settings: Homo sapiens, read-out: Log LC50 (the source's name) (converted)
# OVCAR-8 [3] = assay: In vitro total growth inhibition against ovarian cancer OVCAR-8 cell lines was reported.; type: functional; settings: Homo sapiens, read-out: Log TGI (converted)
# T47D = assay: In vitro growth inhibition against breast cancer […] cell line was reported.; type: functional; settings: Homo sapiens
# HOP-62 = assay: In vitro total growth inhibition against non-small-cell lung cancer HOP-62 cell lines was reported.; type: functional; settings: Homo sapiens, read-out: Log TGI (converted)
# RPMI-8226 [4] = assay: Log of molar concentration leading to 50% cell death against leukemia […] cell line was reported; type: functional; settings: Homo sapiens, read-out: Log LC50 (the source's name) (converted)
# NCI-H322M [5] = assay: In vitro total growth inhibition against non-small-cell lung cancer NCI-H322M cell lines was reported.; type: functional; settings: Homo sapiens, read-out: Log TGI (converted)
# NCI/ADR-RES = assay: In vitro total growth inhibition against breast cancer NCI/ADR-RES cell lines was reported.; type: functional; settings: Homo sapiens, read-out: Log TGI (converted)
# DU-145 [6] = assay: Log of molar concentration leading to 50% cell death against prostate cancer […] cell line was reported; type: functional; settings: Homo sapiens, read-out: Log LC50 (the source's name) (converted)
# SF-295 [7] = assay: In vitro growth inhibition against CNS cancer SF-295 cell line was reported.; type: functional; settings: Homo sapiens
# BT-549 = assay: In vitro growth inhibition against breast cancer BT 549 cell line was reported.; type: functional; settings: Homo sapiens
# HL-60 [8] = assay: In vitro growth inhibition against leukemia HL-60(TB) cell line was reported.; type: functional; settings: Homo sapiens
# 786-0 = assay: In vitro growth inhibition against renal cancer […] cell line was reported.; type: functional; settings: Homo sapiens
# CCRF-CEM = assay: In vitro total growth inhibition against leukemia CCRF cell lines was reported.; type: functional; settings: Homo sapiens, read-out: Log TGI (converted)
# UACC-62 [9] = assay: Log of molar concentration leading to 50% cell death against melanoma UACC-62 cell line was reported; type: functional; settings: Homo sapiens, read-out: Log LC50 (the source's name) (converted)
# M14 [10] = assay: Log of molar concentration leading to 50% cell death against melanoma M14 cell line was reported; type: functional; settings: Homo sapiens, read-out: Log LC50 (the source's name) (converted)
# A549 = assay: In vitro growth inhibition against non-small-cell lung cancer A 549/ATCC cell line was reported.; type: functional; settings: Homo sapiens
# HL-60 [11] = assay: In vitro total growth inhibition against leukemia HL-60(TB) cell lines was reported.; type: functional; settings: Homo sapiens, read-out: Log TGI (converted)
# SK-MEL-2 [12] = assay: Log of molar concentration leading to 50% cell death against melanoma SK-MEL-2 cell line was reported; type: functional; settings: Homo sapiens, read-out: Log LC50 (the source's name) (converted)
# HCC 2998 [13] = assay: In vitro total growth inhibition against colon cancer HCC2998 cell lines was reported.; type: functional; settings: Homo sapiens, read-out: Log TGI (converted)
# MDA-MB-435 = assay: In vitro total growth inhibition against breast cancer MDA-MB-435 cell lines was reported.; settings: Homo sapiens, read-out: Log TGI (converted)
# MCF7 [14] = assay: In vitro total growth inhibition against breast cancer MCF 7 cell lines was reported.; type: functional; settings: Homo sapiens, read-out: Log TGI (converted)
# HCC 2998 [15] = assay: In vitro growth inhibition against colon cancer HCC2998 cell line was reported.; type: functional; settings: Homo sapiens
# UACC-62 [16] = assay: In vitro total growth inhibition against melanoma UACC-62 cell lines was reported.; type: functional; settings: Homo sapiens, read-out: Log TGI (converted)
# HCT-116 [17] = assay: In vitro total growth inhibition against colon cancer HCT116 cell lines was reported.; type: functional; settings: Homo sapiens, read-out: Log TGI (converted)
# SR = assay: In vitro total growth inhibition against leukemia SR cell lines was reported.; type: functional; settings: Homo sapiens, read-out: Log TGI (converted)
# SK-MEL-2 [18] = assay: In vitro total growth inhibition against melanoma SK-MEL-2 cell lines was reported.; type: functional; settings: Homo sapiens, read-out: Log TGI (converted)
# TK-10 = assay: In vitro total growth inhibition against renal cancer TK-10 cell lines was reported.; type: functional; settings: Homo sapiens, read-out: Log TGI (converted)
# MDA-MB-231 [19] = assay: In vitro growth inhibition against breast cancer MDA-MB-231/ATCC cell line was reported.; type: functional; settings: Homo sapiens
# MDA-MB-231 [20] = assay: Log of molar concentration leading to 50% cell death against breast cancer MDA-MB-231/ATCC cell line was reported; type: functional; settings: Homo sapiens, read-out: Log LC50 (the source's name) (converted)
# IGROV-1 = assay: In vitro total growth inhibition against ovarian cancer IGROV1 cell lines was reported.; type: functional; settings: Homo sapiens, read-out: Log TGI (converted)
# M14 [21] = assay: In vitro growth inhibition against melanoma M14 cell line was reported.; type: functional; settings: Homo sapiens
# NCI-H46 = assay: In vitro total growth inhibition against non-small-cell lung cancer […] cell lines was reported.; type: functional; settings: Homo sapiens, read-out: Log TGI (converted)
# NCI-H226 [22] = assay: In vitro growth inhibition against non-small-cell lung cancer NCI-H226 cell line was reported.; type: functional; settings: Homo sapiens
# ACHN = assay: In vitro total growth inhibition against renal cancer ACHN cell lines was reported.; type: functional; settings: Homo sapiens, read-out: Log TGI (converted)
# MDA-N = assay: In vitro growth inhibition against breast cancer MDA-N cell line was reported.; type: functional; settings: Homo sapiens
# NCI-H23 = assay: In vitro total growth inhibition against non-small-cell lung cancer NCI-H23 cell lines was reported.; type: functional; settings: Homo sapiens, read-out: Log TGI (converted)
# RXF 393 = assay: Log of molar concentration leading to 50% cell death against renal cancer RXF 393 cell line was reported; type: functional; settings: Homo sapiens, read-out: Log LC50 (the source's name) (converted)
# OVCAR-8 [23] = assay: In vitro growth inhibition against ovarian cancer OVCAR-8 cell line was reported.; type: functional; settings: Homo sapiens
# SF-295 [24] = assay: Log of molar concentration leading to 50% cell death against CNS cancer SF-295 cell line was reported; type: functional; settings: Homo sapiens, read-out: Log LC50 (the source's name) (converted)
# SK-MEL-28 [25] = assay: Log of molar concentration leading to 50% cell death against melanoma SK-MEL-28 cell line was reported; type: functional; settings: Homo sapiens, read-out: Log LC50 (the source's name) (converted)
# UACC-257 [26] = assay: Log of molar concentration leading to 50% cell death against melanoma UACC-257 cell line was reported; type: functional; settings: Homo sapiens, read-out: Log LC50 (the source's name) (converted)
# MCF7 [27] = assay: In vitro growth inhibition against breast cancer MCF 7 cell line was reported.; type: functional; settings: Homo sapiens
# RPMI-8226 [28] = assay: In vitro total growth inhibition against leukemia […] cell lines was reported.; type: functional; settings: Homo sapiens, read-out: Log TGI (converted)
# HCT-116 [29] = assay: Log of molar concentration leading to 50% cell death against colon cancer HCT116 cell line was reported; type: functional; settings: Homo sapiens, read-out: Log LC50 (the source's name) (converted)
# HT-29 = assay: In vitro total growth inhibition against colon cancer HT-29 cell lines was reported.; type: functional; settings: Homo sapiens, read-out: Log TGI (converted)
# NCI-H226 [30] = assay: In vitro total growth inhibition against non-small-cell lung cancer NCI-H226 cell lines was reported.; type: functional; settings: Homo sapiens, read-out: Log TGI (converted)
# MOLT-4 = assay: In vitro growth inhibition against leukemia MOLT-4 cell line was reported.; type: functional; settings: Homo sapiens
# KM12 = assay: Log of molar concentration leading to 50% cell death against colon cancer KM12 cell line was reported; type: functional; settings: Homo sapiens, read-out: Log LC50 (the source's name) (converted)
# UACC-257 [31] = assay: In vitro total growth inhibition against melanoma UACC-257 cell line was reported.; type: functional; settings: Homo sapiens
# SF-295 [32] = assay: In vitro total growth inhibition against CNS cancer SF-295 cell lines was reported.; type: functional; settings: Homo sapiens, read-out: Log TGI (converted)
# Homo sapiens = species on record: Homo sapiens; assay: In vitro total growth inhibition against non-small-cell lung cancer EKVX cell lines was reported.; type: functional; settings: read-out: Log TGI (converted)
# NCI-H322M [33] = assay: In vitro growth inhibition against non-small-cell lung cancer […] cell line was reported.; type: functional; settings: Homo sapiens
# SK-MEL-5 = assay: In vitro total growth inhibition against melanoma SK-MEL-5 cell lines was reported.; type: functional; settings: Homo sapiens, read-out: Log TGI (converted)
# SK-MEL-28 [34] = assay: In vitro growth inhibition against melanoma SK-MEL-28 cell line was reported.; type: functional; settings: Homo sapiens
# OVCAR-5 = assay: In vitro growth inhibition against ovarian cancer OVCAR-5 cell line was reported.; type: functional; settings: Homo sapiens
# OVCAR-4 [35] = assay: Log of molar concentration leading to 50% cell death against ovarian cancer OVCAR-4 cell line was reported; type: functional; settings: Homo sapiens, read-out: Log LC50 (the source's name) (converted)
# OVCAR-4 [36] = assay: In vitro growth inhibition against ovarian cancer OVCAR-4 cell line was reported.; type: functional; settings: Homo sapiens
smiles,measurement,setting,value
Cc1ccc2cccc(NC(=O)c3cc4c(cc3Cl)Sc3nccn3S4(=O)=O)c2n1,CC50,MCF7 [1],38.9 µM
same,GI50,DU-145 [2],5.5 µM
same,CC50,PC-3,32.4 µM
same,CC50,U-251,38 µM
same,TGI,OVCAR-8 [3],14.5 µM
same,GI50,T47D,2.4 µM
same,TGI,HOP-62,16.2 µM
same,CC50,RPMI-8226 [4],8.51 µM
same,TGI,NCI-H322M [5],24.5 µM
same,TGI,NCI/ADR-RES,41.7 µM
same,CC50,DU-145 [6],42.7 µM
same,GI50,SF-295 [7],11.5 µM
same,GI50,BT-549,11.5 µM
same,GI50,HL-60 [8],0.01 µM
same,GI50,786-0,16.2 µM
same,TGI,CCRF-CEM,17 µM
same,CC50,UACC-62 [9],67.6 µM
same,CC50,M14 [10],57.5 µM
same,GI50,A549,12.3 µM
same,TGI,HL-60 [11],0.01 µM
same,CC50,SK-MEL-2 [12],77.6 µM
same,TGI,HCC 2998 [13],4.68 µM
same,TGI,MDA-MB-435,22.9 µM
same,TGI,MCF7 [14],14.8 µM
same,GI50,HCC 2998 [15],1.82 µM
same,TGI,UACC-62 [16],30.9 µM
same,TGI,HCT-116 [17],17 µM
same,TGI,SR,5.89 µM
same,TGI,SK-MEL-2 [18],32.4 µM
same,TGI,TK-10,20.9 µM
same,GI50,MDA-MB-231 [19],11.5 µM
same,CC50,MDA-MB-231 [20],49 µM
same,TGI,IGROV-1,6.92 µM
same,GI50,M14 [21],7.24 µM
same,TGI,NCI-H46,7.76 µM
same,GI50,NCI-H226 [22],15.1 µM
same,TGI,ACHN,33.9 µM
same,GI50,MDA-N,13.8 µM
same,TGI,NCI-H23,56.2 µM
same,CC50,RXF 393,64.6 µM
same,GI50,OVCAR-8 [23],3.8 µM
same,CC50,SF-295 [24],53.7 µM
same,CC50,SK-MEL-28 [25],75.9 µM
same,CC50,UACC-257 [26],51.3 µM
same,GI50,MCF7 [27],3.24 µM
same,TGI,RPMI-8226 [28],3.8 µM
same,CC50,HCT-116 [29],40.7 µM
same,TGI,HT-29,56.2 µM
same,TGI,NCI-H226 [30],57.5 µM
same,GI50,MOLT-4,4.57 µM
same,CC50,KM12,43.7 µM
same,GI50,UACC-257 [31],13.8 µM
same,TGI,SF-295 [32],24.5 µM
same,TGI,Homo sapiens,25.7 µM
same,GI50,NCI-H322M [33],12 µM
same,TGI,SK-MEL-5,23.4 µM
same,GI50,SK-MEL-28 [34],9.55 µM
same,GI50,OVCAR-5,16.2 µM
same,CC50,OVCAR-4 [35],61.7 µM
same,GI50,OVCAR-4 [36],11 µM
